Where a name gives a salt, the structure may show the parent alone.
System: U2OS cell line stably expressing RFP-eGFP-hLC3b (a tandem reporter cell line)
Assay: Tandem reporter assay (assay to assess autophagic flux)
Type: cell-based, Human
Conditions: result in words; at different concentrations
Protocol: Selected compounds of this invention were also assessed for their ability to stimulate autophagy using a U2OS cell line stabling expressing RFP-eGFP-hLC3b (a tandem reporter cell line). During the process of autophagy, the cargo to be degraded is first enveloped by organelles called autophagosomes. These autophagosomes then fuse with lysosomes, causing them to become acidified and their digestive enzymes to become activated. The term "autophagic flux" is used to represent the dynamic process of autophagy: autophagic flux refers to the whole process of autophagy, including autophagosome formation, maturation, fusion with lysosomes, subsequent breakdown, and the release of macromolecules back into the cytosol (Zhang XJ, Chen S, Huang KX, Le WD. Why should autophagic flux be assessed? Acta Pharmacol Sin. 2013 May; 34(5): 595-9. doi: 10.1038/aps.2012.184. Epub 2013 Mar 11). Compounds that stimulate autophagic flux stimulate the dynamic process of autophagy (the whole process of autophagy). […] Using a fluorescent microscope, the number of autophagosomes and autolysosomes can be counted, allowing for the monitoring of both the induction of autophagy (total puncta count) and the rate of autophagic flux (ratio of red-only to red-and-green puncta). The influence of small molecules on autophagy induction and flux can be assessed using this system by comparison to a non-treated control. […]

**Q.** For `CC(C)c1ccc(-n2cc(C#N)c(-c3nc(C(=O)N(C(C)C)C4CCNCC4)cs3)n2)nc1.Cl` [Compound E, N-isopropyl-N-4-piperidyl-2-[4-cyano-1-(5-isopropyl-2-pyridyl)-3-pyrazolyl]-1,3-thiazole-4-carboxamide hydrochloride], which “number of RFP-only puncta (autolysosomes) relative to a DMSO-treated control (non-treated control)” value is on record?
**A.** Particularly good results

**Q.** For `CC(C)N(C(=O)c1csc(-c2cnc3ccccn23)n1)[C@@H]1CCNC1` [SLN5-X-0978, (R)-2-(imidazo[1,2-a]pyridin-3-yl)-N-Isopropyl-N-(pyrrolidin-3-yl) thiazole-4-carboxamide hydrochloride], which “number of RFP-only puncta (autolysosomes) relative to a DMSO-treated control (non-treated control)” value is on record?
**A.** Particularly good results
